Laboratory results from ChEMBL document CHEMBL4765326, “Anchoring BODIPY photosensitizers enable pan-microbial photoinactivation” (Eur J Med Chem, 2020).
Blank lines part the entries; values can stand above or below the compound they belong to. The source made the active and inactive calls. The rule behind the calls is not given here.

How the values were obtained:
[1] = Drug localization in peripheral edge of Escherichia coli at 10 uM incubated for 30 mins by fluorescent dye based confocal microscopic analysis; format: ADME; settings: 0.5 h
[2] = Octanol-water partition coefficient, logP of compound incubated for 24 hrs under shaking condition; format: physicochemical
[3] = Drug uptake in human HaCaT cells at 5 uM measured after 10 to 30 mins by fluorescence based confocal laser scanning microscopic analysis; format: ADME, cell-based; settings: time 10-30 min
Staphylococcus aureus [4] = test: Photodynamic antibacterial activity against Staphylococcus aureus assessed as bacterial eradication preincubated for 20 mins in dark condition followed by 18 J/cm2 LED light irradiation and measured after 18 hrs by broth microdilution method; format: functional; settings: light or radiation study, 18.33 h, time 1100 min
Candida albicans [5] = test: Photodynamic antifungal activity against Candida albicans assessed as fungal eradication preincubated for 20 mins in dark condition followed by 18 J/cm2 LED light irradiation and measured after 18 hrs by broth microdilution method; format: functional; settings: light or radiation study, 18.33 h, time 1100 min
Escherichia coli [6] = test: Photodynamic antibacterial activity against Escherichia coli assessed as bacterial eradication preincubated for 20 mins in dark condition followed by 18 J/cm2 LED light irradiation and measured after 18 hrs by broth microdilution method; format: functional; settings: light or radiation study, 18.33 h, time 1100 min
Escherichia coli [7] = test: Antibacterial activity against Escherichia coli up to 80 uM by broth microdilution method; format: functional, organism-based; settings: dose microM <=80
Staphylococcus aureus [8] = test: Antibacterial activity against methicillin resistant Staphylococcus aureus up to 80 uM by broth microdilution method; format: functional, organism-based; settings: dose microM <=80
[9] = Induction of singlet oxygen generation in DPBF solution assessed as singlet oxygen quantum yield irradiated with 80 mW/cm2 light by DPBF-based assay; format: functional
Staphylococcus aureus [10] = test: Photodynamic antibacterial activity against methicillin resistant Staphylococcus aureus assessed as bacterial eradication preincubated for 20 mins in dark condition followed by 18 J/cm2 LED light irradiation and measured after 18 hrs by broth microdilution method; format: functional; settings: light or radiation study, 18.33 h, time 1100 min
Candida albicans [11] = test: Antifungal activity against Candida albicans up to 80 uM by broth microdilution method; format: functional, organism-based; settings: dose microM <=80
Staphylococcus aureus [12] = test: Antibacterial activity against Staphylococcus aureus up to 80 uM by broth microdilution method; format: functional, organism-based; settings: dose microM <=80
Staphylococcus aureus [13] = test: Photodynamic antimicrobial activity against methicillin resistant Staphylococcus aureus preincubated for 10 mins in dark followed by irradiation with 6J/cm2 light and measured after incubation for 36 to 48 hrs; format: functional, organism-based; settings: dose 2-10 µM, time 2170-2890 min
Staphylococcus aureus [14] = test: Photodynamic antimicrobial activity against Staphylococcus aureus preincubated for 10 mins in dark followed by irradiation with 6J/cm2 light and measured after incubation for 36 to 48 hrs; format: functional, organism-based; settings: dose 3-18 µM, time 2170-2890 min
Candida albicans [15] = test: Binding affinity to Candida albicans cell wall assessed as bound fraction at 25 uM measured after 3 to 10 mins; settings: time 3-10 min
Escherichia coli [16] = test: Light dose-dependent antimicrobial activity against Escherichia coli at 2 to 4 uM preincubated for 10 mins in dark followed by irradiation with 0.6 to 6J/cm2 light dose incubated for 36 to 48 hrs; format: functional, organism-based; settings: dose 2-4 µM, time 2170-2890 min
Candida albicans [17] = test: Binding affinity to Candida albicans cell wall at 50 uM preincubated with 12.5 to 50 mM Ca2+ for 30 mins followed by incubation with compound for 30 mins
HaCaT [18] = test: Phototoxicity against human HaCaT cells assessed as reduction in cell viability preincubated for 30 mins followed by irradiation with 6J/cm2 light and measured after 24 hrs by MTT assay; format: cell-based; settings: light or radiation study
Candida albicans [19] = test: Photodynamic antimicrobial activity against Candida albicans preincubated for 10 mins in dark followed by irradiation with 9J/cm2 light and measured after incubation for 36 to 48 hrs; format: functional, organism-based; settings: dose 2-10 µM, time 2170-2890 min
Candida albicans [20] = test: Light dose-dependent antimicrobial activity against Candida albicans at 2 to 4 uM preincubated for 10 mins in dark followed by irradiation with 0.6 to 9J/cm2 light dose incubated for 36 to 48 hrs; format: functional, organism-based; settings: dose 2-4 µM, time 2170-2890 min
Escherichia coli [21] = test: Antimicrobial activity against Escherichia coli incubated for 36 to 48 hrs under dark conditions; format: functional, organism-based; settings: time 36-48 hrs
Escherichia coli [22] = test: Binding affinity to Escherichia coli cell wall at 50 uM preincubated with 12.5 to 50 mM Ca2+ for 30 mins followed by incubation with compound for 30 mins
HaCaT [23] = test: Dark toxicity in human HaCaT cells assessed as reduction in cell viability incubated for 30 mins under dark conditions by MTT assay; format: cell-based; settings: 0.5 h
Candida albicans [24] = test: Antimicrobial activity against Candida albicans incubated for 36 to 48 hrs under dark conditions; format: functional, organism-based; settings: time 36-48 hrs
Escherichia coli [25] = test: Binding affinity to Escherichia coli cell wall assessed as bound fraction at 25 uM measured after 3 to 10 mins; settings: time 3-10 min
Cell membrane [26] = test: Disruption of cell membrane integrity in Escherichia coli at 2 uM irradiated with 6J/cm2 light followed by compound exposure for 10 mins by FL-4L/propidium iodide Live/dead staining based laser confocal microscopic analysis
Staphylococcus aureus [27] = test: Antimicrobial activity against methicillin resistant Staphylococcus aureus incubated for 36 to 48 hrs under dark conditions; format: functional, organism-based; settings: time 36-48 hrs
Staphylococcus aureus [28] = test: Binding affinity to Staphylococcus aureus cell wall at 50 uM preincubated with 12.5 to 50 mM Ca2+ for 30 mins followed by incubation with compound for 30 mins
Staphylococcus aureus [29] = test: Light dose-dependent antimicrobial activity against methicillin-resistant Staphylococcus aureus at 2 to 4 uM preincubated for 10 mins in dark followed by irradiation with 0.6 to 6J/cm2 light dose incubated for 36 to 48 hrs; format: functional, organism-based; settings: dose 2-4 µM, time 2170-2890 min
Staphylococcus aureus [30] = test: Light dose-dependent antimicrobial activity against Staphylococcus aureus at 2 to 4 uM preincubated for 10 mins in dark followed by irradiation with 0.6 to 6J/cm2 light dose incubated for 36 to 48 hrs; format: functional, organism-based; settings: dose 2-4 µM, time 2170-2890 min
Cell membrane [31] = test: Binding affinity to Escherichia coli cell membrane assessed as reduction in zeta potential by zetasizer-based analysis; format: subcellular
Candida albicans [32] = test: Disruption of cell membrane integrity in Candida albicans at 2 uM irradiated with 6J/cm2 light followed by compound exposure for 10 mins by FL-4L/propidium iodide Live/dead staining based laser confocal microscopic analysis
Staphylococcus aureus [33] = test: Antimicrobial activity against Staphylococcus aureus incubated for 36 to 48 hrs under dark conditions; format: functional, organism-based; settings: time 36-48 hrs
Escherichia coli [34] = test: Photodynamic antimicrobial activity against Escherichia coli preincubated for 10 mins in dark followed by irradiation with 6J/cm2 light and measured after incubation for 36 to 48 hrs; format: functional, organism-based; settings: dose 2-10 µM, time 2170-2890 min
Cell membrane [35] = test: Disruption of cell membrane integrity in Staphylococcus aureus at 2 uM irradiated with 6J/cm2 light followed by compound exposure for 10 mins by FL-4L/propidium iodide Live/dead staining based laser confocal microscopic analysis
Staphylococcus aureus [36] = test: Binding affinity to Staphylococcus aureus cell wall assessed as bound fraction at 25 uM measured after 3 to 10 mins; settings: time 3-10 min
Cell membrane [37] = test: Binding affinity to Staphylococcus aureus cell membrane assessed as reduction in zeta potential by zetasizer-based analysis; format: subcellular

Drug uptake [1]: Active | logP at 24 h [2]: -1.97 | Drug uptake [3]: Active
Compound: CC1=CC(C)=[N+]2C1=Cc1c(C)cc(C)n1[B-]2(C#CC[N+](C)(C)C)C#CC[N+](C)(C)C.[I-].[I-]

Compound: CC1=C(I)C(C)=[N+]2C1=Cc1c(C)c(I)c(C)n1[B-]2(OCc1cc[n+](C)cc1)OCc1cc[n+](C)cc1
MIC (Staphylococcus aureus [4]): 50 µM | MIC (Candida albicans [5]): 40 µM | MIC (Escherichia coli [6]): 25 µM | logP at 24 h [2]: -1.21 | Activity (Escherichia coli [7]): inactive | Activity (Staphylococcus aureus [8]): inactive | Activity [9]: 0.59 | MIC (Staphylococcus aureus [10]): 40 µM | Activity (Candida albicans [11]): inactive | Activity (Staphylococcus aureus [12]): inactive

Compound: CC[N+](C)(CC)CCO[B-]1(OCC[N+](C)(CC)CC)n2c(C)c(I)c(C)c2C=C2C(C)=C(I)C(C)=[N+]21
MIC (Staphylococcus aureus [4]): 30 µM | MIC (Candida albicans [5]): 40 µM | MIC (Escherichia coli [6]): 40 µM | logP at 24 h [2]: -1.36 | Activity (Escherichia coli [7]): inactive | Activity (Staphylococcus aureus [8]): inactive | Activity [9]: 0.65 | MIC (Staphylococcus aureus [10]): 40 µM | Activity (Candida albicans [11]): inactive | Activity (Staphylococcus aureus [12]): inactive

Compound: CC1=C(I)C(C)=[N+]2C1=Cc1c(C)c(I)c(C)n1[B-]2(C#CC[N+](C)(C)C)C#CC[N+](C)(C)C.[I-].[I-]
Activity (Staphylococcus aureus [13]): Dose-dependent effect | Activity (Staphylococcus aureus [14]): Dose-dependent effect | MIC (Staphylococcus aureus [4]): 1.25 µM | Activity (Candida albicans [15]): 90.8% | Activity (Escherichia coli [16]): Active | Activity (Candida albicans [17]): inactive | IC50 (HaCaT [18]): 4 µM | Activity (Candida albicans [19]): Dose-dependent effect | Activity (Candida albicans [20]): Active | MIC (Candida albicans [5]): 1.25 µM | Activity (Escherichia coli [21]): inactive | Activity (Escherichia coli [22]): inactive | MIC (Escherichia coli [6]): 0.625 µM | Activity (HaCaT [23]): Non-Toxic | Activity (Candida albicans [24]): inactive | logP at 24 h [2]: -1.21 | Activity (Escherichia coli [7]): inactive | Activity (Escherichia coli [25]): 71% | Activity (Cell membrane [26]): Active | Activity (Staphylococcus aureus [27]): inactive | Activity (Staphylococcus aureus [28]): inactive | Activity (Staphylococcus aureus [8]): inactive | Activity (Staphylococcus aureus [29]): Active | Activity [9]: 0.68 | Activity (Staphylococcus aureus [30]): Active | Activity (Cell membrane [31]): Active | Activity (Candida albicans [32]): Active | Activity (Staphylococcus aureus [33]): inactive | Activity (Escherichia coli [34]): Dose-dependent effect | MIC (Staphylococcus aureus [10]): 1.25 µM | Activity (Cell membrane [35]): Active | Activity (Staphylococcus aureus [36]): 85.3% | Activity (Candida albicans [11]): inactive | Activity (Staphylococcus aureus [12]): inactive | Activity (Cell membrane [37]): Active

Compound: CC1=C(I)C(C)=[N+]2C1=Cc1c(C)c(I)c(C)n1[B-]2(OCCCCc1cc[n+](C)cc1)OCCCCc1cc[n+](C)cc1
MIC (Staphylococcus aureus [4]): 1.25 µM | MIC (Candida albicans [5]): 5 µM | MIC (Escherichia coli [6]): 0.625 µM | logP at 24 h [2]: -0.74 | Activity (Escherichia coli [7]): inactive | Activity (Staphylococcus aureus [8]): inactive | Activity [9]: 0.77 | MIC (Staphylococcus aureus [10]): 1.25 µM | Activity (Candida albicans [11]): inactive | Activity (Staphylococcus aureus [12]): inactive

Compound: CC1=C(I)C(C)=[N+]2C1=Cc1c(C)c(I)c(C)n1[B-]2(OCCc1cc[n+](C)cc1)OCCc1cc[n+](C)cc1
MIC (Staphylococcus aureus [4]): 20 µM | Activity (Candida albicans [15]): 34% | Activity (Candida albicans [17]): inactive | MIC (Candida albicans [5]): 40 µM | Activity (Escherichia coli [22]): inactive | MIC (Escherichia coli [6]): 0.625 µM | logP at 24 h [2]: -1.14 | Activity (Escherichia coli [7]): inactive | Activity (Escherichia coli [25]): 51.9% | Activity (Cell membrane [26]): Active | Activity (Staphylococcus aureus [28]): inactive | Activity (Staphylococcus aureus [8]): inactive | Activity [9]: 0.74 | Activity (Cell membrane [31]): Active | Activity (Candida albicans [32]): inactive | MIC (Staphylococcus aureus [10]): 20 µM | Activity (Cell membrane [35]): inactive | Activity (Staphylococcus aureus [36]): 55% | Activity (Candida albicans [11]): inactive | Activity (Staphylococcus aureus [12]): inactive | Activity (Cell membrane [37]): Active

Compound: CC1=C(I)C(C)=[N+]2C1=Cc1c(C)c(I)c(C)n1[B-]2(Oc1cc[n+](C)cc1)Oc1cc[n+](C)cc1
MIC (Staphylococcus aureus [4]): 25 µM | MIC (Candida albicans [5]): 40 µM | MIC (Escherichia coli [6]): 25 µM | logP at 24 h [2]: -0.93 | Activity (Escherichia coli [7]): inactive | Activity (Staphylococcus aureus [8]): inactive | Activity [9]: 0.61 | MIC (Staphylococcus aureus [10]): 40 µM | Activity (Candida albicans [11]): inactive | Activity (Staphylococcus aureus [12]): inactive
